Results published in patent US8026257B2 (Bristol-Myers Squibb Company, priority 2007, dated 2011).
Structures can show the parent of a compound that is named as a salt. One block for each molecule: values may come before it.

Assays:
NK-1 = molecular target: T1, NK-1 (Homo sapiens, UniProt P25103); test: NK1 radioligand binding assay ([125I]Substance P, U373 membranes); conditions: U373 cell membranes, 200 pM [125I]Substance P, 1 hour at room temperature
T1 construct: 30 ul/well of a 2×U373 membrane preparation
T1 sequence (P25103 whole entry): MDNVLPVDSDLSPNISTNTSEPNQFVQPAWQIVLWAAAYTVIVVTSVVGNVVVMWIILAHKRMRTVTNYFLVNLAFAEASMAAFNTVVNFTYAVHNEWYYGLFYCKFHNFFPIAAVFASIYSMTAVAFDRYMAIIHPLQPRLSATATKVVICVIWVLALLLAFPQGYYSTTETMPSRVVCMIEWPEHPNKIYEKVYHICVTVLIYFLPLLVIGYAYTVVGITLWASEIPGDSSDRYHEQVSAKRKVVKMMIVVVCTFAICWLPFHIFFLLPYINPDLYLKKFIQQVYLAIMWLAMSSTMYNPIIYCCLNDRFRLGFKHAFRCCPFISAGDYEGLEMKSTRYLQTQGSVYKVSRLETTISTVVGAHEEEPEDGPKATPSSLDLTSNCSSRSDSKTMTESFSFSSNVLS
Method in brief: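 U373 cell membranes incubated 1 h at room temperature with [125I]Substance P at its Kd (added as 400 pM 2× solution) in Tris-Cl pH 7.5 with MgCl2, BSA, bacitracin and protease inhibitors. Bound radioligand collected on PEI-treated GF/B filters and counted. IC50 from four-parameter fit of triplicates; L-733,060 defined 100% inhibition.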

hSERT = hSERT (Homo sapiens, UniProt P31645); test: SERT radioligand binding assay ([125I]RTI-55, HEK-hSERT membranes); conditions: HEK-293 hSERT membranes, 260 pM [125I]RTI-55, 1 hour at room temperature; read-out: SERT IC50
hSERT, sequence (P31645 whole entry): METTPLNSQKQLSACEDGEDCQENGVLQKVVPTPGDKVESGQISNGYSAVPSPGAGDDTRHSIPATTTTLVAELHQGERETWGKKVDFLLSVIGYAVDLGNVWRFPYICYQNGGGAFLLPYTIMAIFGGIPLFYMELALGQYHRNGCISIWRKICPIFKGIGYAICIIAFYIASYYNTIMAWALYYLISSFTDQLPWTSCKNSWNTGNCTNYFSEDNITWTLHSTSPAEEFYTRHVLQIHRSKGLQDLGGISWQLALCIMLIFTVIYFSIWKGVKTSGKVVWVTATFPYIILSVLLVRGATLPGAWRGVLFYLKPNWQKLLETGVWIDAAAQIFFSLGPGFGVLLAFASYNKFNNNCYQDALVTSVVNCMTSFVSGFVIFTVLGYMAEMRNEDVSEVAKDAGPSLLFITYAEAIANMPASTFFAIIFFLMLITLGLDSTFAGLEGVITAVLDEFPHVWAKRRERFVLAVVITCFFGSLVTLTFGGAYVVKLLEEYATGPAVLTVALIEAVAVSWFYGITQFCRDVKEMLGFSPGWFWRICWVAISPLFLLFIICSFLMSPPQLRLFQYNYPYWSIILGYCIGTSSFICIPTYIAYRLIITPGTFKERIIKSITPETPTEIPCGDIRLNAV
Method in brief: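 Crude membranes from HEK-293 cells expressing hSERT (15 ug/ml, 2× stock) were incubated 1 hour at room temperature with [125I]RTI-55 (520 pM, 2× stock; at Kd) in pH 7.5 Tris, 120 mM NaCl, 5 mM KCl. Bound ligand was collected by GF/B filtration and scintillation counted. IC50 came from four-parameter fit, fluoxetine defining 100% inhibition.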

SMILES: CN1CCC(COCc2cc(C(F)(F)F)cc3nn(C)nc23)(c2ccc(F)cc2)CC1 [Example 79, 4-(((4-(4-Fluorophenyl)-1-methylpiperidin-4-yl)methoxy)methyl)-2-methyl-6-(trifluoromethyl)-2H-benzo[d][1,2,3]triazole]
IC50 (NK-1): 0.01 to 100 nM
IC50 (hSERT): 0.01 to 100 nM

SMILES: CN1CCC(COCc2cc(C(F)(F)F)cc3c2nnn3C)(c2ccc(F)cc2)CC1 [Example 80, 4-(((4-(4-Fluorophenyl)-1-methylpiperidin-4-yl)methoxy)methyl)-1-methyl-6-(trifluoromethyl)-1H-benzo[d][1,2,3]triazole]
IC50 (NK-1): 100 to 300 nM
IC50 (hSERT): 0.01 to 100 nM

SMILES: CN1CCC(COCc2nc3cc(-c4ccc(C#N)cc4)ccc3n2CC2CC2)(c2ccccc2)CC1 [Example 81, 4-(1-(Cyclopropylmethyl)-2-(((1-methyl-4-phenylpiperidin-4-yl)methoxy)methyl)-1H-benzo[d]imidazol-5-yl)benzonitrile]
IC50 (NK-1): > 300 nM
IC50 (hSERT): 0.01 to 100 nM

SMILES: CN1CCC(COCc2nc3cc(Br)ccc3n2CC2CC2)(c2ccccc2)CC1 [Example 82, 5-Bromo-1-(cyclopropylmethyl)-2-(((1-methyl-4-phenylpiperidin-4-yl)methoxy)methyl)-1H-benzo[d]imidazole]
IC50 (NK-1): > 300 nM
IC50 (hSERT): 0.01 to 100 nM

SMILES: CN1CCC(COCc2nc3ccc(Br)cc3n2CC2CC2)(c2ccccc2)CC1 [Example 83, 6-Bromo-1-(cyclopropylmethyl)-2-(((1-methyl-4-phenylpiperidin-4-yl)methoxy)methyl)-1H-benzo[d]imidazole]
IC50 (NK-1): > 300 nM
IC50 (hSERT): 0.01 to 100 nM

SMILES: CN1CCC(COCc2nc3cc(-c4ccc(Cl)cc4Cl)ccc3n2CC2CC2)(c2ccccc2)CC1 [Example 84, 1-(Cyclopropylmethyl)-5-(2,4-dichlorophenyl)-2-(((1-methyl-4-phenylpiperidin-4-yl)methoxy)methyl)-1H-benzo[d]imidazole]
IC50 (NK-1): > 300 nM
IC50 (hSERT): 0.01 to 100 nM

SMILES: CN1CCC(COCc2nc3ccc(C4CC4)cc3n2CC2CC2)(c2ccccc2)CC1 [Example 85, 6-Cyclopropyl-1-(cyclopropylmethyl)-2-(((1-methyl-4-phenylpiperidin-4-yl)methoxy)methyl)-1H-benzo[d]imidazole]
IC50 (NK-1): > 300 nM
IC50 (hSERT): 0.01 to 100 nM

SMILES: CN1CCC(COCc2nc3cc(C(F)(F)F)ccc3n2CC2CC2)(c2ccccc2)CC1 [Example 86, 1-(Cyclopropylmethyl)-2-(((1-methyl-4-phenylpiperidin-4-yl)methoxy)methyl)-5-(trifluoromethyl)-1H-benzo[d]imidazole]
IC50 (NK-1): > 300 nM
IC50 (hSERT): 0.01 to 100 nM

SMILES: CN1CCC(COCc2nc3ccc(C(F)(F)F)cc3n2CC2CC2)(c2ccccc2)CC1 [Example 87, 1-(Cyclopropylmethyl)-2-(((1-methyl-4-phenylpiperidin-4-yl)methoxy)methyl)-6-(trifluoromethyl)-1H-benzo[d]imidazole]
IC50 (NK-1): > 300 nM
IC50 (hSERT): 0.01 to 100 nM

SMILES: COC(=O)C(OCC1(c2ccc(F)cc2)CCN(C)CC1)c1cc(Cl)cc2cn[nH]c12 (stereo not drawn) [Example 89, Methyl 2-(5-chloro-1H-indazol-7-yl)-2-((4-(4-fluorophenyl)-1-methylpiperidin-4-yl)methoxy)acetate trifluoroacetic acid salt]
IC50 (NK-1): > 300 nM
IC50 (hSERT): 0.01 to 100 nM

SMILES: CN1CCC(COC(C(=O)O)c2cc(Cl)cc3cn[nH]c23)(c2ccc(F)cc2)CC1 (stereo not drawn) [Example 90, 2-(5-Chloro-1H-indazol-7-yl)-2-((4-(4-fluorophenyl)-1-methylpiperidin-4-yl)methoxy)acetic acid trifluoroacetic acid salt]
IC50 (NK-1): > 300 nM
IC50 (hSERT): 0.01 to 100 nM

SMILES: CN1CCC(COC(C(=O)N(C)C)c2cc(Cl)cc3cn[nH]c23)(c2ccc(F)cc2)CC1 (stereo not drawn) [Example 91, 2-(5-Chloro-1H-indazol-7-yl)-2-((4-(4-fluorophenyl)-1-methylpiperidin-4-yl)methoxy)-N,N-dimethylacetamide trifluoroacetic acid salt]
IC50 (NK-1): > 300 nM
IC50 (hSERT): 0.01 to 100 nM

SMILES: CN1CCC(COC(CO)c2cc(Cl)cc3cn[nH]c23)(c2ccc(F)cc2)CC1 (stereo not drawn) [Example 92, 2-(5-Chloro-1H-indazol-7-yl)-2-((4-(4-fluorophenyl)-1-methylpiperidin-4-yl)methoxy)ethanol trifluoroacetic acid salt]
IC50 (NK-1): 0.01 to 100 nM
IC50 (hSERT): 0.01 to 100 nM

SMILES: COCC(OCC1(c2ccc(F)cc2)CCN(C)CC1)c1cc(Cl)cc2cn[nH]c12 (stereo not drawn) [Example 93, 5-Chloro-7-(1-((4-(4-fluorophenyl)-1-methylpiperidin-4-yl)methoxy)-2-methoxyethyl)-1H-indazole trifluoroacetic acid salt]
IC50 (NK-1): 0.01 to 100 nM
IC50 (hSERT): 0.01 to 100 nM

SMILES: CN1CCC(COC(CF)c2cc(Cl)cc3cn[nH]c23)(c2ccc(F)cc2)CC1 (stereo not drawn) [Example 94, 5-Chloro-7-(2-fluoro-1-((4-(4-fluorophenyl)-1-methylpiperidin-4-yl)methoxy)ethyl)-1H-indazole]
IC50 (NK-1): 0.01 to 100 nM
IC50 (hSERT): 0.01 to 100 nM

SMILES: CN1CCC(COC(C#N)c2cc(Cl)cc3cn[nH]c23)(c2ccc(F)cc2)CC1 (stereo not drawn) [Example 95, 2-(5-Chloro-1H-indazol-7-yl)-2-((4-(4-fluorophenyl)-1-methylpiperidin-4-yl)methoxy)acetonitrile]
IC50 (NK-1): 0.01 to 100 nM
IC50 (hSERT): 0.01 to 100 nM

SMILES: CC(OCC1(c2ccc(F)cc2)CCN(C)CC1)c1cc(Cl)cc2[nH]c(=O)[nH]c12 (stereo not drawn) [Example 96, 6-Chloro-4-(1-((4-(4-fluorophenyl)-1-methylpiperidin-4-yl)methoxy)ethyl)-1H-benzo[d]imidazol-2(3H)-one trifluoroacetic acid salt]
IC50 (NK-1): 100 to 300 nM
IC50 (hSERT): 0.01 to 100 nM

SMILES: CC(OCC1(c2ccc(F)cc2)CCN(C)CC1)c1cc(Cl)cc2[nH]c(=O)n(C)c12 (stereo not drawn) [Example 97, 5-Chloro-7-(1-((4-(4-fluorophenyl)-1-methylpiperidin-4-yl)methoxy)ethyl)-1-methyl-1H-benzo[d]imidazol-2(3H)-one trifluoroacetic acid salt]
IC50 (NK-1): 100 to 300 nM
IC50 (hSERT): 0.01 to 100 nM

SMILES: CC(OCC1(c2ccc(F)cc2)CCN(C)CC1)c1cc(Cl)cc2c1[nH]c(=O)n2C (stereo not drawn) [Example 98, 6-Chloro-4-(1-((4-(4-fluorophenyl)-1-methylpiperidin-4-yl)methoxy)ethyl)-1-methyl-1H-benzo[d]imidazol-2(3H)-one trifluoroacetic acid salt]
IC50 (NK-1): 0.01 to 100 nM
IC50 (hSERT): 0.01 to 100 nM

IC50 (NK-1): 0.01 to 100 nM
IC50 (hSERT): 0.01 to 100 nM
SMILES: C[C@@H](OCC1(c2ccc(F)cc2)CCNCC1)c1cc(Cl)cc2c(Cl)n[nH]c12 [Example 99, (R)-3,5-Dichloro-7-(1-((4-(4-fluorophenyl)piperidin-4-yl)methoxy)ethyl)-1H-indazole]

SMILES: C[C@@H](OCC1(c2ccc(F)cc2)CCN(C)CC1)c1cc(Cl)cc2c(Cl)n[nH]c12 [Example 100, (R)-3,5-Dichloro-7-(1-((4-(4-fluorophenyl)-1-methylpiperidin-4-yl)methoxy)ethyl)-1H-indazole]
IC50 (NK-1): 0.01 to 100 nM
IC50 (hSERT): 0.01 to 100 nM

IC50 (NK-1): 0.01 to 100 nM
IC50 (hSERT): 0.01 to 100 nM
SMILES: C[C@@H](OCC1(c2ccc(F)cc2)CCNCC1)c1cc(Br)cc2c(Br)n[nH]c12 [Example 101, (R)-3,5-Dibromo-7-(1-((4-(4-fluorophenyl)piperidin-4-yl)methoxy)ethyl)-1H-indazole]

SMILES: C[C@@H](OCC1(c2ccc(F)cc2)CCN(C)CC1)c1cc(Br)cc2c(Br)n[nH]c12 [Example 102, (R)-3,5-Dibromo-7-(1-((4-(4-fluorophenyl)-1-methylpiperidin-4-yl)methoxy)ethyl)-1H-indazole]
IC50 (NK-1): 0.01 to 100 nM
IC50 (hSERT): 0.01 to 100 nM

SMILES: Cc1n[nH]c2c([C@@H](C)OCC3(c4ccc(F)cc4)CCN(C)CC3)cc(Cl)cc12 [Example 103, (R)-5-Chloro-7-(1-((4-(4-fluorophenyl)-1-methylpiperidin-4-yl)methoxy)ethyl)-3-methyl-1H-indazole]
IC50 (NK-1): 0.01 to 100 nM
IC50 (hSERT): 0.01 to 100 nM

IC50 (NK-1): 0.01 to 100 nM
IC50 (hSERT): 0.01 to 100 nM
SMILES: C[C@@H](OCC1(c2ccc(F)cc2)CCNCC1)c1cc(Cl)cc2cn(CC3CC3)nc12 [Example 104]

SMILES: C[C@@H](OCC1(c2ccc(F)cc2)CCN(C)CC1)c1cc(Cl)cc2cn(CC3CC3)nc12 [Example 105, (R)-5-chloro-2-(cyclopropylmethyl)-7-(1-((4-(4-fluorophenyl)-1methylpiperidin-4-yl)methoxy)ethyl)-2H-indazole]
IC50 (NK-1): 0.01 to 100 nM
IC50 (hSERT): 0.01 to 100 nM

SMILES: C[C@@H](OCC1(c2ccc(F)cc2)CCN(C)CC1)c1cc(Cl)cc2cnn(CC3CC3)c12 [Example 106, (R)-5-chloro-1-(cyclopropylmethyl)-7-(1-((4-(4-fluorophenyl)-1methylpiperidin-4-yl)methoxy)ethyl)-1H-indazole]
IC50 (NK-1): 0.01 to 100 nM
IC50 (hSERT): 0.01 to 100 nM

SMILES: C[C@@H](OCC1(c2ccc(F)cc2)CCN(C)CC1)c1cc(Cl)cc2cn(CC#N)nc12 [Example 107, (R)-2-(5-chloro-7-(1-((4-(4-fluorophenyl)-1-methylpiperidine-4-yl)methoxy)ethyl)-2H-indazole-2-yl)acetonitrile]
IC50 (NK-1): 0.01 to 100 nM
IC50 (hSERT): 0.01 to 100 nM

SMILES: C[C@@H](OCC1(c2ccc(F)cc2)CCN(C)CC1)c1cc(Cl)cc2cnn(CC#N)c12 [Example 108]
IC50 (NK-1): 0.01 to 100 nM
IC50 (hSERT): 0.01 to 100 nM

SMILES: CN1CCC(CO[C@H](CF)c2cc(Cl)cc3c(Cl)n[nH]c23)(c2ccc(F)cc2)CC1 [Example 109, (S)-3,5-dichloro-7-(2-fluoro-1-((4-(4-fluorophenyl)-1-methylpiperidine-4-yl)methoxy)ethyl)-1H-indazole]
IC50 (NK-1): 0.01 to 100 nM
IC50 (hSERT): 0.01 to 100 nM
